How the values were obtained:
Assay type in all cases: functional
SK-MEL-2 = experiment: Cytotoxicity against human SK-MEL-2 cells by SRB assay
SK-MEL-28 = experiment: Cytotoxicity against human SK-MEL-28 cells by SRB assay
SK-MEL-5 = experiment: Cytotoxicity against human SK-MEL-5 cells by SRB assay
UACC-257 = experiment: Cytotoxicity against human UACC257 cells by SRB assay
UACC-62 = experiment: Cytotoxicity against human UACC62 cells by SRB assay
IGROV-1 = experiment: Cytotoxicity against human IGROV1 cells by SRB assay
OVCAR-3 = experiment: Cytotoxicity against human OVCAR-3 cells by SRB assay
OVCAR-4 = experiment: Cytotoxicity against human OVCAR4 cells by SRB assay
OVCAR-5 = experiment: Cytotoxicity against human OVCAR5 cells by SRB assay
OVCAR-8 = experiment: Cytotoxicity against human OVCAR8 cells by SRB assay
SK-OV-3 = experiment: Cytotoxicity against human SKOV3 cells by SRB assay
[1] = Cytotoxicity against human 786-O cells by SRB assay; settings: 786-0
A498 = experiment: Cytotoxicity against human A498 cells by SRB assay
ACHN = experiment: Cytotoxicity against human ACHN cells by SRB assay
CAKI-1 = experiment: Cytotoxicity against human Caki1 cells by SRB assay
RXF 393 = experiment: Cytotoxicity against human RXF393 cells by SRB assay
SN12C = experiment: Cytotoxicity against human SN12C cells by SRB assay
UO-31 = experiment: Cytotoxicity against human UO31 cells by SRB assay
PC-3 = experiment: Cytotoxicity against human PC3 cells by SRB assay
DU-145 = experiment: Cytotoxicity against human DU145 cells by SRB assay
MCF7 = experiment: Cytotoxicity against human MCF7 cells by SRB assay
[2] = Cytotoxicity against human MCF7/ADR cells by SRB assay; settings: NCI/ADR-RES
MDA-MB-231 = experiment: Cytotoxicity against human MDA-MB-231 cells by SRB assay
[3] = Cytotoxicity against human Hs 578T cells by SRB assay
MDA-MB-435 = experiment: Cytotoxicity against human MDA-MB-435 cells by SRB assay
MDA-N = experiment: Cytotoxicity against human MDA-N cells by SRB assay
BT-549 = experiment: Cytotoxicity against human BT549 cells by SRB assay
T47D = experiment: Cytotoxicity against human T47D cells by SRB assay
Leukemia cell = experiment: Cytotoxicity against human Leukemia cells by SRB assay
NSCLC = experiment: Cytotoxicity against human NSCLC cells by SRB assay
[4] = Cytotoxicity against human Colon cancer cells by SRB assay; settings: Cancer cell lines
[5] = Cytotoxicity against human CNS cancer cells by SRB assay; settings: Cancer cell lines
[6] = Cytotoxicity against human melanoma cells by SRB assay; settings: Melanoma cell
[7] = Cytotoxicity against human ovarian cancer cells by SRB assay; settings: Cancer cell lines
[8] = Cytotoxicity against human prostate cancer cells by SRB assay; settings: Cancer cell lines
[9] = Cytotoxicity against human breast cancer cells by SRB assay; settings: Cancer cell lines
[10] = Cytotoxicity against human renal cancer cells by SRB assay; settings: Cancer cell lines

COC(C)(C)[C@@H](O)[C@H](O)C[C@H](C)C1=C2CC[C@@H]3[C@@]4(C)CC[C@@H](OC(C)=O)C(C)(C)[C@@H]4C[C@@H](O[C@@H]4O[C@H](COC(C)=O)[C@@H](O)[C@H](O)[C@H]4O)[C@@]3(C)[C@]2(C)CC1
GI50 (SK-MEL-2): 13.2 µM
GI50 (SK-MEL-28): 11.7 µM
GI50 (SK-MEL-5): 14.5 µM
GI50 (UACC-257): 12.6 µM
GI50 (UACC-62): 8.71 µM
GI50 (IGROV-1): 13.2 µM
GI50 (OVCAR-3): 7.41 µM
GI50 (OVCAR-4): 10.7 µM
GI50 (OVCAR-5): 14.8 µM
GI50 (OVCAR-8): 12.9 µM
GI50 (SK-OV-3): 15.1 µM
GI50 [1]: 14.5 µM
GI50 (A498): 14.1 µM
GI50 (ACHN): 10.5 µM
GI50 (CAKI-1): 4.07 µM
GI50 (RXF 393): 6.92 µM
GI50 (SN12C): 13.5 µM
GI50 (UO-31): 13.5 µM
GI50 (PC-3): 5.62 µM
GI50 (DU-145): 15.1 µM
GI50 (MCF7): 2.63 µM
GI50 [2]: 15.1 µM
GI50 (MDA-MB-231): 11.5 µM
GI50 [3]: 11.7 µM
GI50 (MDA-MB-435): 12.3 µM
GI50 (MDA-N): 11.7 µM
GI50 (BT-549): 15.1 µM
GI50 (T47D): 12.6 µM
TGI (Leukemia cell): 20.9 µM
TGI (NSCLC): 25.6 µM
TGI [4]: 20.7 µM
TGI [5]: 23.8 µM
TGI [6]: 29.9 µM
TGI [7]: 25.6 µM
TGI [8]: 23.5 µM
TGI [9]: 24.8 µM
TGI [10]: 23.6 µM
